The conditions of this data set: 101.33 kPa, Liquid, Capillary tube (Ostwald / Ubbelohde) method.

Molecules are shown by their SMILES. Numbers after ± are expanded uncertainties.

Consider `FC(F)(F)C(F)(F)C(F)(F)C(F)(F)C(F)(F)C(F)(F)C(F)(F)C(F)(F)Br` [1-bromoperfluorooctane], for which the kinematic viscosity worked out at 1.065e-06 ± 1e-08 m2/s (298.15 K); 9.96e-07 ± 1e-08 m2/s (303.15 K); 9.05e-07 ± 1.1e-08 m2/s (308.15 K); 8.37e-07 ± 6e-09 m2/s (313.15 K); 7.51e-07 ± 1.1e-08 m2/s (318.15 K).
Consider `FC(F)(F)C(F)(F)C(F)(F)C(F)(F)C(F)(F)C(F)(F)C(F)(F)C(F)(F)C(F)(F)F` [eicosafluorononane], for which the kinematic viscosity came out at 1e-06 ± 1.2e-08 m2/s (298.15 K); 9.11e-07 ± 9e-09 m2/s (303.15 K); 8.33e-07 ± 8e-09 m2/s (308.15 K); 7.73e-07 ± 6e-09 m2/s (313.15 K); 7.14e-07 ± 7e-09 m2/s (318.15 K).
For the molecule `FC(F)(F)C(F)(F)C(F)(F)C(F)(F)C(F)(F)C(F)(F)C(F)(F)F` [hexadecafluoroheptane], the kinematic viscosity (298.15 K) was determined as 5.43e-07 ± 4e-09 m2/s; the kinematic viscosity (303.15 K) came out at 5.12e-07 ± 9e-09 m2/s; the kinematic viscosity (308.15 K) came to 4.82e-07 ± 1.1e-08 m2/s; the kinematic viscosity (313.15 K) amounted to 4.48e-07 ± 7e-09 m2/s; the kinematic viscosity (318.15 K) turned out to be 4.34e-07 ± 7e-09 m2/s.
For `Fc1c(F)c(F)c(F)c(F)c1F` [hexafluorobenzene], the kinematic viscosity by setting is: (298.15 K) 5.81e-07 ± 9e-09 m2/s; (303.15 K) 5.35e-07 ± 1.1e-08 m2/s; (308.15 K) 4.91e-07 ± 4e-09 m2/s; (313.15 K) 4.5e-07 ± 7e-09 m2/s; (318.15 K) 4.23e-07 ± 9e-09 m2/s.
The like results for `FC(F)(F)C(F)(F)C(F)(F)C(F)(F)C(F)(F)C(F)(F)C(F)(F)C(F)(F)F` [octadecafluorooctane] were, in that order, 7.11e-07 ± 7.4e-09 m2/s, 6.56e-07 ± 6.9e-09 m2/s, 6.08e-07 ± 6.4e-09 m2/s, 5.65e-07 ± 6e-09 m2/s and 5.27e-07 ± 5.6e-09 m2/s.
Take `Fc1c(F)c(F)c(C(F)(F)F)c(F)c1F` [octafluorotoluene]: the kinematic viscosity stood at 5.88e-07 ± 4e-09 m2/s (298.15 K); 5.51e-07 ± 5e-09 m2/s (303.15 K); 5.16e-07 ± 4e-09 m2/s (308.15 K); 4.84e-07 ± 4e-09 m2/s (313.15 K); 4.57e-07 ± 4e-09 m2/s (318.15 K).
The like results for `FC(F)(F)C1(F)C(F)(F)C(F)(F)C(F)(F)C(F)(F)C1(F)F` [perfluoro(methylcyclohexane)] were, in that order, 9.31e-07 ± 8e-09 m2/s, 8.43e-07 ± 9e-09 m2/s, 7.72e-07 ± 8e-09 m2/s, 7.22e-07 ± 9e-09 m2/s and 6.84e-07 ± 9e-09 m2/s.
For the molecule `FC1(F)C(F)(F)C(F)(F)C2(F)C(F)(F)C(F)(F)C(F)(F)C(F)(F)C2(F)C1(F)F` (stereo not given) [perfluorodecalin], the kinematic viscosity came out at 2.803e-06 ± 1.6e-08 m2/s (298.15 K); 2.448e-06 ± 1.4e-08 m2/s (303.15 K); 2.159e-06 ± 1.4e-08 m2/s (308.15 K); 1.917e-06 ± 1.1e-08 m2/s (313.15 K); 1.709e-06 ± 1e-08 m2/s (318.15 K).
In the same order, the values of `FC(F)(F)C(F)(F)C(F)(F)C(F)(F)C(F)(F)C(F)(F)F` [perfluorohexane] are 4.17e-07 ± 5e-09 m2/s, 3.97e-07 ± 9e-09 m2/s, 3.72e-07 ± 4e-09 m2/s, 3.57e-07 ± 5e-09 m2/s and 3.43e-07 ± 4e-09 m2/s.

The values above are taken from the NIST ThermoML archive (doi:10.1021/je700632z).
